Values of other authors in patent publication US20130122119A1, “PHYLLANTHUS AMARUS COMPOSITIONS AND METHOD OF EXTRACTING SAME” (NATREON, INC., priority 2011, published 2013).

Key:
TNF-α release = settings: read-out: IC50 of TNF-α release inhibition
mouse skin tumors = settings: week 20, treatment prior to okadaic acid
[1] = test system: hepatitis B surface antigen (HBsAg) secretion; settings: non-cytotoxic concentration of 200 μg/ml
[2] = test system: hepatitis B e-antigen (HBeAg) secretion; settings: non-cytotoxic concentration of 200 μg/ml
[3] = geraniin isolated from Phyllanthus sellowianus

Compound | IC50 (TNF-α release) [µM] | average numbers of tumor per mouse (mouse skin tumors; 3.8 without treatment) | percentage of tumor-bearing mice (mouse skin tumors; 80.0% without treatment) [%] | inhibition of HBsAg secretion [1] | inhibition of HBeAg secretion [2] [%] | analgesic potency at the ID50 level (micromol/kg) relative to aspirin and acetaminophen [3]
O=C(O[C@@H]1O[C@@H]2COC(=O)c3cc(O)c(O)c(O)c3-c3c(cc(O)c(O)c3O)C(=O)O[C@H]([C@H]1O)[C@@H]2O)c1cc(O)c(O)c(O)c1 [Corilagin, beta-1-O-galloyl-3,6-(R)-hexahydroxydiphenoyl-D-glucose] | 76 | – | – | – | – | –
O=C1OC2C3COC(=O)c4cc(O)c(O)c(O)c4-c4c(cc(O)c(O)c4O)C(=O)OC2C(OC(=O)c2cc(O)c(O)c4c2C2C1=CC(=O)C(O)(O4)C2(O)O)C(OC(=O)c1cc(O)c(O)c(O)c1)O3 [Geraniin, beta-D-Glucopyranose, cyclic 2-7:4-5-(3,6-dihydro-2,9,10,11,11-pentahydroxy-3-oxo-2,6-methano-2H-1-benzoxocin-5,7-dicarboxylate) cyclic 3,6-(4,4′,5,5′,6,6′-hexahydroxy(1,1′-biphenyl)-2,2′-dicarboxylate) 1-(3,4,5-trihydroxybenzoate)] | 43 | 1.1 | 40.0 | more than 85.8% | > 63.7 | about six- to seven-fold more potent
(−)-epigallocatechin gallate | 26 | – | – | – | – | –
